# Data: a melting point compilation (Tetko et al.; mined from patent text by program, amines drawn as free bases though some values may be those of a salt)
row,SMILES,melting point [°C]
1,COc1ccc(C2CC(n3ccnc3)c3ccccc3N2)cc1 (stereo not drawn),156 to 158
2,O=C(O)C1CCc2c(c3ccccc3n2C(=O)c2cccc(I)c2)C1 (stereo not drawn),210 to 212
3,CSCc1c(N)c(C#N)cc(F)c1F,109 to 110
4,CCOC(=O)c1cnc(-c2ccccc2)nc1-c1ccc([N+](=O)[O-])cc1,138 to 140
5,O=C(NCCc1ccccn1)c1ccc2cc(C(=O)N3CC(CCl)c4ccc([N+](=O)[O-])cc43)[nH]c2c1 (stereo not drawn),204 to 207
6,O=C(O)CCc1oc(Cl)nc1-c1ccc(Cl)cc1,169 to 170
7,CC1C(c2ccccc2)OC(=O)N1C(=O)CC1c2ccccc2CCc2ccccc21 (stereo not drawn),130 to 131
8,O=S(=O)(Cl)c1cccc2c1COC2,40 to 43
9,O=C(O)C(=O)CC(=O)c1ccc(Cc2ccc(Cl)c(Cl)c2)cc1,133 to 140
10,COc1ccc2[nH]c(C(C)C)c(C=C3SC(=S)N(CC(=O)O)C3=O)c2c1,255 to 260
11,CCCc1nc2c(N)nc3cc(OCCNC(=O)OC(C)(C)C)ccc3c2s1,136 to 139
12,"COc1ccc(Br)c2c1CC(NC(C1CC1)C1CC1)CC2 (single isomer, unassigned; (-))",153 to 154
13,CCCCCCCOC(=O)Cc1nc(-c2ccc(Cl)cc2)oc1-c1ccco1,69 to 70
14,CCCCCCCCCCCCCCCCCCc1ccc(O)c([N+](=O)[O-])c1,71
15,CC(OS(=O)(=O)C(F)(F)F)=C(C(=O)OCc1ccccc1)N1C(=O)[C@@H](N2C(=O)c3ccccc3C2=O)[C@H]1COS(C)(=O)=O,51 to 55
16,CC(=O)O[C@@]12C[C@@H](OC1=O)C(=O)[C@H](O[Si](C)(C)C(C)(C)C)C2,134 to 137
17,O=C(O)CCCCCNC(=O)c1cc2cc3c(cc2c2cc(OCc4ccccc4)ccc12)OCO3,198 to 200
18,COc1c(C=O)ccc2c1oc1ccccc12,178 to 180
19,O=S(=O)(CC1(O)CN2CCC1CC2)c1ccc(-c2ccccc2)cc1 (stereo not drawn),203 to 205
20,Cc1cc2c(-c3ccccc3)c(NC(=O)N(C)Cc3ccccc3)n(C)c(=O)c2cc1C,174 to 176
21,CCc1noc(-c2cn(-c3nc[nH]n3)cn2)n1,242 to 243
22,Cc1cc(CSCCNC(=C[N+](=O)[O-])NCC(O)c2cccc(Br)c2)sc1CN(C)C (stereo not drawn),104 to 106
23,CCCC=Cc1c(C(C)C)nc(C(C)C)c(CO)c1-c1ccc(S(C)=O)cc1 (stereo not drawn),133 to 135
24,COc1cc2c(cc1OC)CN(c1nc(N)c3cc(OC)c(OC)cc3n1)CCC2,122 to 124
25,CN[C@H](Cc1ccc2ccccc2c1)C(=O)N1CCN(S(C)(=O)=O)C[C@H]1Cc1ccccc1,165 to 168
26,O=C(NCCCC(=O)N1CCCC1=O)c1cc(Br)no1,141 to 142

row,SMILES,melting point [°C]
1,CC(C)(C)c1cc(CO)nn1-c1ccc(S(C)(=O)=O)cc1,143 to 146
2,CCCc1ccc(NC2CCN(c3ccc(OC[C@@]4(C)Cn5cc([N+](=O)[O-])nc5O4)cc3)CC2)cc1,222 to 223
3,Cc1[nH]cnc1/C=C1\CCc2c(c3cccc4c3n2CCC4)C1=O,260 to 264
4,CN(CCSC(=O)Cc1ccccc1Nc1c(Cl)cccc1Cl)CC1(SN=O)CCCCC1,115 to 129
5,Cc1sc(-n2cccc2C=O)c(C#N)c1C,154
6,N=C(N)N(CCCC(C=O)NC(=O)C1CCCN1C(=O)c1cc2ccccc2[nH]1)C(=O)OCc1ccccc1 (stereo not drawn),111 to 133
7,C(CCc1ccccc1)=C1CCN(Cc2nc3ccccc3[nH]2)CC1,163 to 165
8,Cc1cc2cc(CN3CCOCC3)cnc2cc1NC(=O)c1ccc(-c2ccc(F)cc2)cc1,153 to 158
9,Clc1cc(Cl)c(Oc2nc(Oc3c(Cl)cc(Cl)c(Cl)c3Cl)nc(Oc3c(Cl)cc(Cl)c(Cl)c3Cl)n2)c(Cl)c1Cl,165 to 168
10,Cc1ccc(S(=O)(=O)n2c(-c3cn(C)c4ccc(-c5ccncc5)cc34)cc3cccnc32)cc1,82 to 85
11,CC(C)[C@H](NC(=O)N(C)Cc1csc(N)n1)C(=O)N[C@@H](Cc1ccccc1)[C@H](O)[C@H](O)[C@H](Cc1ccccc1)NC(=O)OC(C)(C)C,103 to 107
12,CCOC(=O)c1ccc(-c2ncc(-c3ccc(Cl)cc3)o2)cc1,195 to 197
13,CCCCn1c(C)c(C(=O)c2ccccc2C(=O)O)c2ccccc21,88 to 92
14,O=S(=O)(NCC(O)(Cn1cncn1)c1ccc(F)cc1F)c1ccc(C(F)(F)F)cc1 (stereo not drawn),161 to 162
15,O=C(Nc1nc(/C=C/c2ccc([N+](=O)[O-])cc2)cs1)c1ccccc1,224 to 225
16,COC(=O)C(C)(C(=O)O)N1C(=O)CCC(N2C(=O)c3ccccc3C2=O)C1=O (stereo not drawn),143 to 146
17,CCc1c(OC)nc2nc(C(N)=S)cn2c1C,248 to 259
18,COC(=O)COc1cc(C(F)(F)F)cc(C(F)(F)F)c1,65 to 67
19,CC(C)(CO)NC(=O)c1cccc(-c2cccc3cc(Cc4cc(F)cc(Cl)c4)sc23)c1,149 to 150
20,CN1C(=O)CC[C@]2(C)c3ccc(-c4ccc(C(F)(F)F)cc4[N+](=O)[O-])cc3CC[C@@H]12,55 to 57
21,CN1C(=O)C(NC(=O)Nc2cccc([N+](=O)[O-])c2)N=C(c2ccccc2)c2ccccc21 (stereo not drawn),288 to 289
22,O=Cc1ccc(C2=NOC(c3cc(Cl)cc(Cl)c3)(C(F)(F)F)C2)cc1Cl (stereo not drawn),129 to 130
23,COc1ccc2c(CCC3CCN(Cc4ccccc4)CC3)noc2c1,90.5 to 91.5
24,Cc1ccc(S(=O)(=O)OCC(O)Cc2cccc(C(C)(C)C)c2O)cc1 (stereo not drawn),98 to 101
25,O=C(N[C@H]1CCN(CCc2ccc(F)cc2)C1)N(C1CCCCC1)C1CCCCC1,97 to 98

# The remaining lines, values ahead:
row,melting point [°C],SMILES
1,126 to 128,CCCCc1nn(-c2cc([N+](=O)[O-])ccc2Br)c(=O)n1Cc1ccc(-c2ccccc2S(=O)(=O)NC(C)(C)C)cc1
2,210 to 214,COc1cc(OC)nc(Oc2ccc(N)nc2C(=O)ON=C(C)C)n1
3,152 to 157,CCOC(=O)c1cc2ccnc(Cl)c2[nH]1
4,171 to 177,Cc1nnc(-c2ccc(F)cc2)n2nc(OCc3ncnn3C)c(-c3ccsc3)c12
5,196 to 198,COC(=O)C1CC2=C(CO1)C(=O)c1cc3ccccc3c(OC(C)=O)c1C2=O (stereo not drawn)
6,109 to 110,CCOC(=O)C1=C(C)Nc2snc(CCCOCc3ccccc3)c2C1c1cccc([N+](=O)[O-])c1 (stereo not drawn)
7,250 to 252,O=C(O)c1ccc(COc2ccc3cc(-c4ccc(-c5ccccc5)n4Cc4ccc(C(F)(F)F)cc4)ccc3c2)c(C(=O)O)c1
8,118 to 120,COC(=O)c1oc2cc(S)ccc2c1C
9,217 to 219,Cc1cnc(N)c(=O)n1C
10,100 to 102,Cc1nc(-c2ccccc2C(F)(F)F)c(-c2ccccc2C(F)(F)F)o1
11,221 to 223,CNC(=O)NN=Cc1ncc([N+](=O)[O-])n1C
12,134,COc1ccc(C=CC(=O)c2c(OC)cc(OC)cc2OC(=O)c2ccccc2)cc1
13,251 to 253,CCOC(=O)c1nnc2ccc(NC(=O)OCC(Cl)(Cl)Cl)cc2c1O
14,86 to 87,CCOC(=O)C1C(=O)CC(=O)CC1c1ccccc1 (stereo not drawn)
15,280 to 282,Cc1cccc(Nc2c(N)cc(C(=O)O)cc2S(N)(=O)=O)c1
16,149 to 152,COc1ccc(Cn2c(C)c(Br)c3cnnc(OCc4ccccc4)c32)cc1
17,141 to 143,N#CCNc1cn(-c2cccnc2)nc1Cl
18,49 to 50,CCOC(=O)/C(=C\Nc1cccc(OC)c1)c1ccccc1
19,173,Cc1cc(-c2cc(C(F)(F)F)n3cnc(-c4cccnc4)c3n2)ccc1C(F)(F)F
20,75 to 76,CCOc1cc(O[Si](C)(C)C(C)(C)C)c(C)c(C(=O)OCc2ccc([N+](=O)[O-])cc2)c1C
21,227 to 228,Cc1cc(-c2nc3cccnn3c2-c2ccnc(NC(=O)CCS(C)(=O)=O)c2)ccc1F

row,melting point [°C],SMILES
1,152 to 154,Cc1ccc(N=c2scc(-c3ccc(Cl)c(S(=O)(=O)N(C)C)c3)n2C)c(C)c1
2,157 to 159,Cn1nc(-c2ccc(Cl)cc2)c2cc3ccccc3cc21
3,169 to 171,C[C@@H](Nc1c(-c2c(F)cc(F)cc2F)c(Cl)nc2ncnn12)C(C)(C)C
4,192 to 194,COC(=O)c1c(-c2ccccc2)nc2c(c1N)c1c(n2Cc2ccc(OC)cc2)CCCC1
5,50 to 51,O=C(NCCO)C1(c2cccc3nn(Cc4cccc(C(F)(F)F)c4)cc23)C=CC=CN1 (stereo not drawn)
6,94 to 96,C(#Cc1cnc(-c2cccs2)s1)c1ccccc1
7,118 to 119,Oc1cccc(-c2n[nH]c3ncnc(Nc4cccc(Cl)c4)c23)c1
8,> 300,CCOC(=O)c1cnc2cc(OC)c(OC)cc2c1
9,152 to 153,COc1ccc(-c2c(C(=O)CC(C)C)c(CSc3nccn3C)nc3cc(OC)c(OC)cc23)cc1OC
10,94 to 97,CC(C)(C)c1ccc(OCC(O)CN2CCC3(CC2)CSC2=C(O3)c3cc(-c4ccccc4)ccc3C(=O)C2=O)cc1 (stereo not drawn)
11,56 to 68,C#CC1(Oc2ccc(F)cc2[N+](=O)[O-])CCN(C(=O)OCC)CC1
12,257 to 260,Cc1ccccc1C(=O)Nc1ccc(C(=O)N2CCc3cnoc3-c3ccccc32)cc1
13,232 to 233,Cn1cc(C(=O)NCc2ccc(Cl)cc2)c(=O)c2cc(Br)oc21
14,188 to 189,CS(=O)(=O)c1ccc(-c2sc(-c3ccccc3)nc2-c2ccc(F)cc2)cc1
15,206 to 208,CSc1nn2c(N3CCOCC3)cc(C)nc2c1S(=O)(=O)c1ccccc1
16,195 to 196,COc1cc(C(=O)O)ccc1Cc1cn(C)c2ccc(CCNC(=O)N(C)C)cc12
17,161 to 162,O=CNCCOc1cccc2c1c1ccccc1n2Cc1ccccc1
18,223 to 226,CCOc1cc(Cc2cnc(N)nc2N)cc2c1OC(C)(C)C=C2c1ccncc1
19,125 to 128,C#CCc1c(C)nc2c(NCc3c(C)cccc3NC(=O)OC)cc(NC(C)=O)cn12
20,171 to 174,CCOc1ccc2c(=S)cc[nH]c2c1
21,159 to 160,Cc1cccc2c1C(=O)N1CC[C@H]1C(=O)N2
